Experimental data reported in US12285407B2, “Bis-indolylmethane derivatives and uses thereof” (The University of The West Indies, priority 2018, dated 2025).

Legend:
Streptococcus pneumoniae [1] = assay: Checkerboard synergy (FICI) of antibiotics with SP-BIM; format: cell-based; conditions: for MIC antibiotic only: antibiotic alone
Klebsiella pneumoniae [2] = assay: as above; format: cell-based; conditions: for MIC antibiotic only: antibiotic alone
Escherichia coli [3] = assay: microbe, parasite or virus in culture; format: cell-based; conditions: antibiotic alone, Table 6
Enterococcus faecium = assay: Checkerboard synergy (FICI) of antibiotics with SP-BIM; format: cell-based; conditions: Enterococcus faecium; for MIC antibiotic only: antibiotic alone
Klebsiella pneumoniae [4] = assay: Adjuvant broth microdilution (antibiotic MIC with SP-BIM at 50 μg/mL); format: cell-based; conditions: Klebsiella pneumoniae; antibiotic alone; Table 7
Streptococcus pneumoniae [5] = assay: as above; format: cell-based; conditions: Streptococcus pneumonia; antibiotic alone; Table 5
Escherichia coli [6] = assay: Checkerboard synergy (FICI) of antibiotics with SP-BIM; design: MIC SP-BIM 13 only / MIC in combination: Antibiotic: unit not given beside the values; conditions: for MIC antibiotic only: antibiotic alone
Candida albicans = assay: as above; design: MIC SP-BIM 13 only / MIC in combination: Antibiotic / MIC antibiotic only: unit not given beside the values
Bacillus cereus = assay: as above; format: cell-based; conditions: for MIC antibiotic only: antibiotic alone
Staphylococcus aureus = assay: as above; format: cell-based; conditions: Staphylococcus aureus; for MIC antibiotic only: antibiotic alone
MRSA = assay: Adjuvant broth microdilution (antibiotic MIC with SP-BIM at 50 μg/mL); format: cell-based, Staphylococcus aureus; conditions: antibiotic alone, Table 4
Escherichia coli O157:H7 = assay: Rescue concentrations of SP-BIM that reactivate antibiotic; format: cell-based
clinical strains of MRSA = assay: Kirby Bauer disc diffusion susceptibility profile; format: cell-based, Staphylococcus aureus; conditions: for Zone of clearance: 35° C., 24 hours, average n=3; for Interpretive standard (resistant/susceptible): zones vs EUCAST breakpoints (Table 30)
Enterococcus faecalis = assay: Adjuvant broth microdilution (antibiotic MIC with SP-BIM at 50 μg/mL); format: cell-based; conditions: antibiotic alone
[7] = Streptococcus pneumonia (title: Streptococcus pyogenes), antibiotic + SP-BIM 9
[8] = Streptococcus pneumoniae, antibiotic + SP-BIM 13
[9] = SP-BIM 9 concentration in combination with the labelled antibiotic
[10] = SP-BIM 9 in combination with the labelled antibiotic
[11] = SP-BIM 13 concentration in combination with the labelled antibiotic
[12] = SP-BIM 13 in combination with the labelled antibiotic
[13] = antibiotic in combination with SP-BIM 9
[14] = antibiotic in combination with SP-BIM 13
[15] = MIC of the antibiotic in combination with SP-BIM 13

## CC1=C(C(=O)O)N2C(=O)[C@@H](NC(=O)[C@H](N)c3ccccc3)[C@H]2SC1 [Cephalexin, cefalexin]
Streptococcus pneumoniae [1]; Streptococcus pneumonia (title: Streptococcus pyogenes), SP-BIM 9 concentration in combination with the labelled antibiotic
  MIC in combination, SP-BIM 9: 125 µg/mL
Streptococcus pneumoniae [1]; Streptococcus pneumonia (title: Streptococcus pyogenes), SP-BIM 9 in combination with the labelled antibiotic
  FIC of SP-BIM 9: 0.50
Streptococcus pneumoniae [1]; [7]
  Interpretation: Additive (Additive: FICI>0.5-1.0)
  Σ FIC: <0.63
Streptococcus pneumoniae [1]; Streptococcus pneumonia (title: Streptococcus pyogenes), SP-BIM 9 checkerboard
  MIC antibiotic only: 250 µg/mL
Streptococcus pneumoniae [1]; Streptococcus pneumonia (title: Streptococcus pyogenes), antibiotic in combination with SP-BIM 9
  MIC in combination, Antibiotic: 32 µg/mL
Streptococcus pneumoniae [1]; Streptococcus pneumonia (title: Streptococcus pyogenes), in combination with SP-BIM 9
  FIC of antibiotic: 0.13
Streptococcus pneumoniae [1]; Streptococcus pneumoniae, SP-BIM 13 concentration in combination with the labelled antibiotic
  MIC in combination, SP-BIM 13: 63 µg/mL
Streptococcus pneumoniae [1]; Streptococcus pneumoniae, SP-BIM 13 in combination with the labelled antibiotic
  FIC of SP-BIM 13: 0.3
Streptococcus pneumoniae [1]; [8]
  Interpretation: Synergy (Synergy: FICI≤0.5)
  Σ FIC: <0.3
Streptococcus pneumoniae [1]; Streptococcus pneumoniae, SP-BIM 13 checkerboard
  MIC antibiotic only: 250 µg/mL
Streptococcus pneumoniae [1]; Streptococcus pneumoniae, antibiotic in combination with SP-BIM 13
  MIC in combination, Antibiotic: 2 µg/mL
Streptococcus pneumoniae [1]; Streptococcus pneumoniae, in combination with SP-BIM 13
  FIC of antibiotic: 0.0
Klebsiella pneumoniae [2]; [9]
  MIC in combination, SP-BIM 9: 125 µg/mL
Klebsiella pneumoniae [2]; [10]
  FIC of SP-BIM 9: 0.5
Klebsiella pneumoniae [2]; [11]
  MIC in combination, SP-BIM 13: 63 µg/mL
Klebsiella pneumoniae [2]; [12]
  FIC of SP-BIM 13: 0.3
Klebsiella pneumoniae [2]; antibiotic + SP-BIM 9
  Interpretation: Synergy (Synergy: FICI≤0.5)
  Σ FIC: <0.5
Klebsiella pneumoniae [2]; antibiotic + SP-BIM 13
  Interpretation: Synergy (Synergy: FICI≤0.5)
  Σ FIC: <0.5
Klebsiella pneumoniae [2]; SP-BIM 9 checkerboard
  MIC antibiotic only: 250 µg/mL
Klebsiella pneumoniae [2]; SP-BIM 13 checkerboard
  MIC antibiotic only: 250 µg/mL
Klebsiella pneumoniae [2]; [13]
  MIC in combination, Antibiotic: 4 µg/mL
Klebsiella pneumoniae [2]; [14]
  MIC in combination, Antibiotic: 63 µg/mL
Klebsiella pneumoniae [2]; in combination with SP-BIM 9
  FIC of antibiotic: 0.016
Klebsiella pneumoniae [2]; in combination with SP-BIM 13
  FIC of antibiotic: 0.3
Escherichia coli [3]
  MIC of antibiotic, No Compound: >250 µg/mL
Enterococcus faecium; [11]
  MIC in combination, SP-BIM 13: 63 µg/mL
Enterococcus faecium; [12]
  FIC of SP-BIM 13: 0.5
Enterococcus faecium; antibiotic + SP-BIM 13
  Interpretation: Synergy (Synergy: FICI≤0.5)
  Σ FIC: 0.5
Enterococcus faecium; SP-BIM 9 checkerboard
  MIC antibiotic only: 250 µg/mL
Enterococcus faecium; SP-BIM 13 checkerboard
  MIC antibiotic only: 250 µg/mL
Enterococcus faecium; [14]
  MIC in combination, Antibiotic: 8 µg/mL
Enterococcus faecium; in combination with SP-BIM 13
  FIC of antibiotic: 0.0
Klebsiella pneumoniae [4]
  MIC of antibiotic, No Compound: 8 µg/mL
Streptococcus pneumoniae [5]
  MIC of antibiotic, No Compound: 250 µg/mL
Escherichia coli [6]; [15]
  MIC in combination: Antibiotic: 125
Escherichia coli [6]; [9]
  MIC in combination, SP-BIM 9: 125 µg/mL
Escherichia coli [6]; [10]
  FIC of SP-BIM 9: 0.5
Escherichia coli [6]; [12]
  FIC of SP-BIM 13: 0.3
Escherichia coli [6]; antibiotic + SP-BIM 9
  Interpretation: Synergy (Synergy: FICI≤0.5)
  Σ FIC: <0.6
Escherichia coli [6]; antibiotic + SP-BIM 13
  Interpretation: Additive (Additive: FICI>0.5-1.0)
  Σ FIC: <0.8
Escherichia coli [6]
  MIC antibiotic only: >250
Escherichia coli [6]; SP-BIM 9 checkerboard
  MIC antibiotic only: 250 µg/mL
Escherichia coli [6]; [13]
  MIC in combination, Antibiotic: 16 µg/mL
Escherichia coli [6]; combination with SP-BIM 13
  FIC of antibiotic: 0.5
Escherichia coli [6]; in combination with SP-BIM 9
  FIC of antibiotic: 0.064
Candida albicans; [15]
  MIC in combination: Antibiotic: 63
Candida albicans; [12]
  FIC of SP-BIM 13: 0.5
Candida albicans; antibiotic + SP-BIM 13
  Interpretation: Additive (Additive: FICI>0.5-1.0)
  Σ FIC: <0.8
Candida albicans; antibiotic alone
  MIC antibiotic only: >250
Candida albicans; combination with SP-BIM 13
  FIC of antibiotic: 0.3
Bacillus cereus; [11]
  MIC in combination, SP-BIM 13: 32 µg/mL
Bacillus cereus; [12]
  FIC of SP-BIM 13: 0.1
Bacillus cereus; antibiotic + SP-BIM 13
  Interpretation: Synergy (Synergy: FICI≤0.5)
  Σ FIC: <0.1
Bacillus cereus; SP-BIM 9 checkerboard
  MIC antibiotic only: >250 µg/mL
Bacillus cereus; SP-BIM 13 checkerboard
  MIC antibiotic only: 250 µg/mL
Bacillus cereus; [14]
  MIC in combination, Antibiotic: 4 µg/mL
Bacillus cereus; in combination with SP-BIM 13
  FIC of antibiotic: 0.02
Staphylococcus aureus; [9]
  MIC in combination, SP-BIM 9: 16.0 µg/mL
Staphylococcus aureus; [10]
  FIC of SP-BIM 9: 0.06
Staphylococcus aureus; [11]
  MIC in combination, SP-BIM 13: 63 µg/mL
Staphylococcus aureus; [12]
  FIC of SP-BIM 13: 0.5
Staphylococcus aureus; antibiotic + SP-BIM 9
  Interpretation: Synergy (Synergy: FICI≤0.5)
  Σ FIC: <0.19
Staphylococcus aureus; antibiotic + SP-BIM 13
  Interpretation: Additive (Additive: FICI>0.5-1.0)
  Σ FIC: 0.6
Staphylococcus aureus; SP-BIM 9 checkerboard
  MIC antibiotic only: 4 µg/mL
Staphylococcus aureus; SP-BIM 13 checkerboard
  MIC antibiotic only: 4 µg/mL
Staphylococcus aureus; [13]
  MIC in combination, Antibiotic: 0.5 µg/mL
Staphylococcus aureus; [14]
  MIC in combination, Antibiotic: 0.5 µg/mL
Staphylococcus aureus; in combination with SP-BIM 9
  FIC of antibiotic: 0.13
Staphylococcus aureus; in combination with SP-BIM 13
  FIC of antibiotic: 0.1
MRSA
  MIC of antibiotic, No Compound: 16 µg/mL

## NC[C@H]1O[C@H](O[C@H]2[C@H](O)[C@@H](O[C@H]3O[C@H](CO)[C@@H](O)[C@H](N)[C@H]3O)[C@H](N)C[C@@H]2N)[C@H](O)[C@@H](O)[C@@H]1O [Kanamycin, kanamycin]
Escherichia coli O157:H7; E. coli O157:H7, with 32 μg/mL SP-BIM 28
  MIC of Kanamycin in combination with 32 μg/mL SP-BIM 28: 1 µg/mL
Escherichia coli O157:H7; Escherichia coli, read-out: MIC of Kanamycin
  MIC: 8 µg/mL
Clinical strains of MRSA; MRSA strain 1594
  Zone of clearance: 11.5 mm
  Interpretive standard (resistant/susceptible): R
Clinical strains of MRSA; MRSA strain 1621
  Zone of clearance: 19.5 mm
  Interpretive standard (resistant/susceptible): S
Clinical strains of MRSA; MRSA strain 5455
  Zone of clearance: 19.5 mm
  Interpretive standard (resistant/susceptible): S
Clinical strains of MRSA; MRSA strain 5872
  Zone of clearance: 0.0 mm
  Interpretive standard (resistant/susceptible): R
Clinical strains of MRSA; MRSA strain 7153
  Zone of clearance: 19.5 mm
  Interpretive standard (resistant/susceptible): S
Clinical strains of MRSA; MRSA strain 7172
  Zone of clearance: 20.5 mm
  Interpretive standard (resistant/susceptible): S
Clinical strains of MRSA; MRSA strain 7698
  Zone of clearance: 8.5 mm
  Interpretive standard (resistant/susceptible): R
Clinical strains of MRSA; MRSA strain 10132
  Zone of clearance: 8.0 mm
  Interpretive standard (resistant/susceptible): R
Enterococcus faecalis
  MIC of antibiotic, No Compound: 250 µg/mL
